Biological target: T1, Penicillin acylase from Escherichia coli (Escherichia coli, UniProt P06875)
T1 construct: gene pac; prepared by a procedure described earlier
Test: KM as competitive inhibition constant of NIPAB hydrolysis, […] nm
Type: biochemical
Conditions: pH 7.5, 0.01 M phosphate, 0.1 M KCl, 25 C; competitive with NIPAB

T1 sequence (P06875 27-235, looked up): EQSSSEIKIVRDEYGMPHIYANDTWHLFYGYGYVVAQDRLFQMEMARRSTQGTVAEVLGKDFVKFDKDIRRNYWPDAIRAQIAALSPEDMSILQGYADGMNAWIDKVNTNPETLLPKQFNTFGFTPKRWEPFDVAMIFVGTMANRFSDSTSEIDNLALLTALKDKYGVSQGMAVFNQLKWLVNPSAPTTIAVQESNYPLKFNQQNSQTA
T1 sequence (P06875 290-846, looked up): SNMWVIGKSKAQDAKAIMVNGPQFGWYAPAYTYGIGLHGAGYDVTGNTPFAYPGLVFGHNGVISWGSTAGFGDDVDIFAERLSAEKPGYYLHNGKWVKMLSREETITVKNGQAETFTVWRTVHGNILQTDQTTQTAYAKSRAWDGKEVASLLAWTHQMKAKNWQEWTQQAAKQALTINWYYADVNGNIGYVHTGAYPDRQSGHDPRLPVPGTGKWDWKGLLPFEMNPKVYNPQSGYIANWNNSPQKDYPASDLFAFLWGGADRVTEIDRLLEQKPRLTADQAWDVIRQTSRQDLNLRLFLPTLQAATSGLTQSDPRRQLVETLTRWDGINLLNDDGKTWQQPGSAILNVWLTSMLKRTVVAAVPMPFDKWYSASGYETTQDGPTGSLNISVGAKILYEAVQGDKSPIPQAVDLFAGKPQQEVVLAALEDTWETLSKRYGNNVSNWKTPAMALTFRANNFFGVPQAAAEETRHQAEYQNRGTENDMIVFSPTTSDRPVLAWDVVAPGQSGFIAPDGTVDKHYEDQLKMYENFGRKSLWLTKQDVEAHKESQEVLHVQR

SMILES | KM
O=C(O)C[C@H](NC(=O)OCc1ccccc1)C(=O)O [N-benzyloxycarbonyl derivative of aspartic acid] | the least effective binding substrates for penicillin acylase from Escherichia coli are derivatives of aspartic acid
C[C@H](NC(=O)OCc1ccccc1)C(=O)O [N-benzyloxycarbonyl-L-Ala] | expressed as the catalytic constant value (%) with respect to the corresponding alanine derivatives
O=C(O)C[C@H](NC(=O)Cc1ccccc1)C(=O)O [N-phenylacetyl derivative of aspartic acid] | the least effective binding substrates for penicillin acylase from Escherichia coli are derivatives of aspartic acid
